Reference: publication PMC11257039, “VCP activator reverses nuclear proteostasis defects and enhances TDP-43 aggregate clearance in multisystem proteinopathy models” (The Journal of Clinical Investigation, 2024)
Values joined by “and” are separate entries in the source; they are usually repeats but may differ in a detail not shown here. Equal entries are not always repeated.

How the values were obtained:
[1] = system: luciferase; assay: Luciferase counter assay: Kinase-Glo with 62.5 μM ATP without recombinant VCP; type: biochemical; details: for measured ATP consumed (nmol) without VCP: replicate values
Procedure, shortened: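 Counter-screen with no recombinant VCP: 62.5 μM ATP and rising compound concentrations in ATPase buffer (25 mM HEPES pH 7.5, 100 mM NaCl, 10 mM MgCl2, 2% DMSO), 1 h at 25°C. Remaining ATP was read as Kinase-Glo luminescence after 20 min at room temperature; n=3, linear mixed effects model.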

[2] = target: T1, R155H VCP (Mus musculus, UniProt Q01853, R155H); assay: MESG-PNP ATPase assay, recombinant R155H VCP; type: biochemical
T1 construct: in the full-length recombinant VCP; His (N); made in house; host or cells: Escherichia coli BL21-CodonPlus (DE3)-RIL
T1 sequence (Q01853 whole entry R155H): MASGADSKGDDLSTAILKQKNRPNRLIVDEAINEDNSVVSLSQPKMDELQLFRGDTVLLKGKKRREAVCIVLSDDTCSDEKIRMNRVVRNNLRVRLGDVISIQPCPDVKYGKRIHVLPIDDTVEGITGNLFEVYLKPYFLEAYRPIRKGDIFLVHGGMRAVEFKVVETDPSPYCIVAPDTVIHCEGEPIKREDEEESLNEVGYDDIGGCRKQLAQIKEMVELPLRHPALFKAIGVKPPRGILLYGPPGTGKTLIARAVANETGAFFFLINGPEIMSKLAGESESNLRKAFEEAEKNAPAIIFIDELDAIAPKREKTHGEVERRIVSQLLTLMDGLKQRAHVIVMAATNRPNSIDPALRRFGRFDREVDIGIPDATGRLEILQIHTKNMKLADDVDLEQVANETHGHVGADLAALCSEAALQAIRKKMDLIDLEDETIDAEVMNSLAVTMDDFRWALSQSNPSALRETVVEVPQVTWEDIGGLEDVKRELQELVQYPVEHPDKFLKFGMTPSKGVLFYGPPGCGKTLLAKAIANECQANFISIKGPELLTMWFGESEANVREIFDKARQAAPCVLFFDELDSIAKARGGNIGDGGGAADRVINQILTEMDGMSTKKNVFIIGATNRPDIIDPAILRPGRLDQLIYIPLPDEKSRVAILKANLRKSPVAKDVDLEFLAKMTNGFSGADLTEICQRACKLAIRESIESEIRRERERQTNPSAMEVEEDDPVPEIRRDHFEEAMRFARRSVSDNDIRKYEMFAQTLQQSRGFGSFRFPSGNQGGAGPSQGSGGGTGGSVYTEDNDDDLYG
Procedure, shortened: (§1)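 Phosphate release (MESG-PNP, A360) from 50 nM recombinant mouse VCP mutant, with 25 μM compound versus 2% DMSO, at 1mM ATP. Read >15 min at 25°C, quantified against a phosphate standard curve; initial velocity from linear fit of the linear portion.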

[3] = system: WT HeLa cells expressing TDP-4FL; assay: Immunofluorescence of TDP-4FL inclusion morphology, WT HeLa; type: cell-based; details: MG132 17 h, then CHX with 5 μM UP109 4 h
Method: HeLa Cells were plated onto glass coverslips and transfected with TDP-4FL using Fugene HD for 24 hours. Cells were fixed with 4% paraformaldehyde (Electron Microscopy Sciences), permeabilized with 0.1% Triton-X (Thermo Fisher Scientific), and blocked with 2% FBS DPBS. Primary antibodies were diluted in 2% FBS DPBS. Cells were stained with 300 nM DAPI, and coverslips were mounted onto glass slides using ProLong Glass Antifade Mountant (Thermo Fisher Scientific). Confocal images were obtained using a Leica TCS SPE laser scanning confocal microscope.
(A) High power magnification immunofluorescence confocal images of HeLa cells expressing TDP-4FL stained for myc-TDP (green) Scale bar, 5 µm. […]
(C) Representative confocal microscopy immunofluorescence confocal images of HeLa cells […]
yellow represent cells that were categorized as anisosome morphology. Nuclei outline in white represent cells that were categorized as aggregate morphology. Cells with approximately more than 50% anisosome inclusions were categorized as anisosome morphology whereas cells with approximately more than 50% aggregate-like inclusions were categorized as aggregate morphology. Binucleate cells were excluded from the total counts. Scale bar, 10 µm.
(1 picture or pasted object on this page, not shown here)

[4] = target: T2, recombinant WT VCP (Mus musculus, UniProt Q01853); assay: MESG-PNP (EnzCheck) phosphate release ATPase assay, WT VCP; type: biochemical; details: for ATPase activity v0/ET: 25 μM compound, replicate experiments
T2 construct: in the full-length recombinant VCP; His (N); made in house; host or cells: Escherichia coli BL21-CodonPlus (DE3)-RIL
T2 sequence (Q01853 whole entry): as the sequence (Q01853 whole entry R155H) above, with H155R counted along it
Procedure, shortened: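 50 nM mouse WT VCP with 25 μM compound, 2% DMSO and varied ATP at 25°C; phosphate release followed by MESG-PNP absorbance at 360 nm for over 15 min against a phosphate standard curve. Initial rates from the linear portion, fitted to a 3-parameter dose curve or to Michaelis-Menten.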

[5] = target: T3, R159H VCP (Mus musculus, UniProt Q01853, R159H); assay: MESG-PNP ATPase assay, recombinant R159H VCP; type: biochemical
T3 construct: in the full-length recombinant VCP; His (N); made in house; host or cells: Escherichia coli BL21-CodonPlus (DE3)-RIL
T3 sequence (Q01853 whole entry R159H): as the sequence (Q01853 whole entry R155H) above, with H155R, R159H counted along it
Procedure, shortened: as §1

[6] = target: T4, WT VCP + Ufd1/Nploc4 (Mus musculus, UniProt Q01853); assay: Kinase-Glo ATPase assay, WT VCP with UFD1/NPLOC4 (UN); type: biochemical; details: for ATP consumed: WT VCP with UN
T4 construct: in the full-length recombinant VCP; His (N); made in house; host or cells: E. coli (VCP: BL21-CodonPlus (DE3)-RIL; UFD1 and NPLOC4: E. coli (DE3), purified by the MD Anderson core)
T4 sequence (Q01853 whole entry): as the sequence (Q01853 whole entry R155H) above, with H155R counted along it
T4 sequence (Q92890 whole entry partner): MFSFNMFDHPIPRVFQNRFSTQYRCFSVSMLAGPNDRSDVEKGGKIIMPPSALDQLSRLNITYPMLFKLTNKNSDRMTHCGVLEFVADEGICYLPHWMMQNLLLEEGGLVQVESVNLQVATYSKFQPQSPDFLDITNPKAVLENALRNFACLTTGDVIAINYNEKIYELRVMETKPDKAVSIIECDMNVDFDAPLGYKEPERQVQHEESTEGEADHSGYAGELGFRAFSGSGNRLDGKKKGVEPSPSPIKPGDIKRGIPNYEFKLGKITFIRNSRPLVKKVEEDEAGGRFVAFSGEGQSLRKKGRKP
T4 sequence (Q8TAT6 whole entry partner): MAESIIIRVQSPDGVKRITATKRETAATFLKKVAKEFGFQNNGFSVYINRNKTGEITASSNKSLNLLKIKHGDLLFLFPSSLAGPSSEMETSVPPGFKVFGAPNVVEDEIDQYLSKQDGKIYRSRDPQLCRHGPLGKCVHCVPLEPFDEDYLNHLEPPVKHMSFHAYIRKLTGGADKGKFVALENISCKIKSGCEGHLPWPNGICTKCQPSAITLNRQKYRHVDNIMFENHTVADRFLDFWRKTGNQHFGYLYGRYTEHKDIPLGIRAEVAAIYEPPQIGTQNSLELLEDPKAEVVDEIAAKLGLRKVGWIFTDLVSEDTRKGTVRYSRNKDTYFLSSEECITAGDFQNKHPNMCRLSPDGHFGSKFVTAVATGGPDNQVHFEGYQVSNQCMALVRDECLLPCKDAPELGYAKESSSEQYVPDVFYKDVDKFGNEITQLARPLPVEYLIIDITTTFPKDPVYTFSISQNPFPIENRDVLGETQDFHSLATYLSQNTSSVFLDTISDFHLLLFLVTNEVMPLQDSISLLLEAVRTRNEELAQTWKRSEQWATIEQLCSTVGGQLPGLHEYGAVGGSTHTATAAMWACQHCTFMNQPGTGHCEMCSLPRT
Procedure, shortened: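 Mouse VCP (50 nM), alone or with 50 nM UFD1/NPLOC4, was incubated 1 h at 25 °C with 62.5 μM ATP and a range of compound concentrations in HEPES pH 7.5, 100 mM NaCl, 10 mM MgCl2, 2% DMSO. Remaining ATP was read by Kinase-Glo luminescence. Dose data were fit to a 3-parameter curve; ATP-varied data were fit to Michaelis-Menten.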

[7] = target: T5, A232E VCP (Mus musculus, UniProt Q01853, A232E); assay: MESG-PNP ATPase assay, recombinant A232E VCP; type: biochemical
T5 construct: in the full-length recombinant VCP; His (N); made in house; host or cells: Escherichia coli BL21-CodonPlus (DE3)-RIL
T5 sequence (Q01853 whole entry A232E): as the sequence (Q01853 whole entry R155H) above, with H155R, A232E counted along it
Procedure, shortened: as §1

[8] = system: WT HeLa cells expressing GFP-TDP-4FL; assay: Flow cytometry of GFP-TDP-4FL integrated fluorescence, WT HeLa; type: cell-based; details: for Integrated Fluorescence WT (Normalized to CHX): replicate values
Procedure, shortened: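 Trypsinised cells resuspended in colorless DMEM with 2% FBS and analysed by flow cytometry. Integrated fluorescence taken as percent GFP-positive cells multiplied by GFP median fluorescence.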

[9] = 25 μM compound, 1 mM ATP, 50 nM VCP

COCCNC(=O)NC(=O)COC(=O)c1cc([N+](=O)[O-])ccc1Sc1nc(C)cs1 [UP109]
luciferase activity (measured ATP without VCP) ([1]; 62.5 μM ATP, increasing concentrations of compound): did not inhibit luciferase activity | measured ATP consumed (nmol) without VCP ([1]; compound 6.25 μM): 3.224 nmol and 3.481 nmol and 3.557 nmol and 3.618 nmol and 3.348 nmol and 3.306 nmol and 3.280 nmol and 3.059 nmol and 3.211 nmol and 3.590 nmol and 3.249 nmol and 3.229 nmol | measured ATP consumed (nmol) without VCP ([1]; compound 12.5 μM): 3.275 nmol and 3.593 nmol and 3.611 nmol and 3.469 nmol and 3.221 nmol and 3.387 nmol and 3.414 nmol and 3.086 nmol and 3.141 nmol and 3.174 nmol and 3.231 nmol and 3.422 nmol | measured ATP consumed (nmol) without VCP ([1]; compound 25 μM): 3.285 nmol and 3.476 nmol and 3.450 nmol and 3.355 nmol and 3.220 nmol and 3.354 nmol and 3.314 nmol and 3.030 nmol and 3.217 nmol and 3.388 nmol and 3.578 nmol and 3.396 nmol | measured ATP consumed (nmol) without VCP ([1]; compound 50 μM): 3.335 nmol and 3.348 nmol and 3.307 nmol and 3.386 nmol and 3.228 nmol and 2.949 nmol and 3.054 nmol and 3.211 nmol and 3.367 nmol and 3.287 nmol and 3.322 nmol | measured ATP consumed (nmol) without VCP ([1]; compound 100 μM): 3.258 nmol and 3.303 nmol and 3.325 nmol and 3.212 nmol and 3.287 nmol and 3.191 nmol and 3.396 nmol and 3.257 nmol and 3.381 nmol and 3.296 nmol | measured ATP consumed (nmol) without VCP ([1]; compound 200 μM): 3.338 nmol and 3.532 nmol and 3.360 nmol and 3.185 nmol and 3.242 nmol and 2.772 nmol and 3.166 nmol and 3.261 nmol and 3.507 nmol and 3.171 nmol and 3.672 nmol | ATPase activity of R155H VCP [2, 9]: increases ATPase activity | ATPase activity, nmol Pi / nmol VCP / s ([2]; VCP Mutation R155H, replicate values): 1.058 nmol Pi / nmol VCP / s and 1.110 nmol Pi / nmol VCP / s and 1.179 nmol Pi / nmol VCP / s | TDP-4FL aggregate morphology [3]: appeared to be smaller and in some cases revert to small anisosomes | decrease in KM compared with DMSO ([4]; 25 μM activator): more than 2 fold | kcat (nmol Pi / nmol VCP / s) (95% CI) ([4]; 25 μM activator): 0.489 (0.459, 0.520) nmol Pi / nmol VCP / s | increase in catalytic efficiency (kcat/KM) ([4]; 25 μM activator, versus DMSO): > 4 fold | increase in kcat ([4]; 25 μM activator, versus DMSO): 100% | ATPase activity v0/ET ([4]; [ATP] 62.5 μM): 0.302 nmol Pi / nmol VCP / s and 0.325 nmol Pi / nmol VCP / s and 0.308 nmol Pi / nmol VCP / s | ATPase activity v0/ET ([4]; [ATP] 125 μM): 0.374 nmol Pi / nmol VCP / s and 0.402 nmol Pi / nmol VCP / s and 0.380 nmol Pi / nmol VCP / s | ATPase activity v0/ET ([4]; [ATP] 250 μM): 0.403 nmol Pi / nmol VCP / s and 0.414 nmol Pi / nmol VCP / s and 0.420 nmol Pi / nmol VCP / s | ATPase activity v0/ET ([4]; [ATP] 500 μM): 0.423 nmol Pi / nmol VCP / s and 0.468 nmol Pi / nmol VCP / s and 0.467 nmol Pi / nmol VCP / s | ATPase activity v0/ET ([4]; [ATP] 1000 μM): 0.455 nmol Pi / nmol VCP / s and 0.493 nmol Pi / nmol VCP / s and 0.498 nmol Pi / nmol VCP / s | ATPase activity of R159H VCP [5, 9]: increases ATPase activity | ATPase activity, nmol Pi / nmol VCP / s ([5]; VCP Mutation R159H, replicate values): 1.124 nmol Pi / nmol VCP / s and 1.212 nmol Pi / nmol VCP / s and 1.056 nmol Pi / nmol VCP / s | change in EC50 with UN compared to without UN [6]: non-significant decreases | change in maximum percent activity with UN compared to without UN [6]: significantly decreased | EC50 ([6]; WT VCP + Ufd1/Nploc4, 1:1 molar ratio): 13.4 µM | ATP consumed ([6]; 1.56 μM compound): 1.207 nmol and 1.374 nmol and 1.037 nmol | ATP consumed ([6]; 3.13 μM compound): 1.252 nmol and 1.505 nmol and 1.198 nmol | ATP consumed ([6]; 6.25 μM compound): 1.448 nmol and 1.727 nmol and 1.392 nmol | ATP consumed ([6]; 12.5 μM compound): 1.655 nmol and 1.932 nmol and 1.557 nmol | ATP consumed ([6]; 25 μM compound): 1.893 nmol and 2.050 nmol and 1.818 nmol | ATP consumed ([6]; 50 μM compound): 2.078 nmol and 2.217 nmol and 1.927 nmol | ATP consumed ([6]; 100 μM compound): 2.107 nmol and 2.355 nmol and 2.018 nmol | ATP consumed ([6]; 200 μM compound): 1.978 nmol and 2.301 nmol and 2.081 nmol | ATPase activity of A232E VCP [7, 9]: increases ATPase activity | ATPase activity, nmol Pi / nmol VCP / s ([7]; VCP Mutation A232E, replicate values): 1.176 nmol Pi / nmol VCP / s and 1.282 nmol Pi / nmol VCP / s and 1.456 nmol Pi / nmol VCP / s | Integrated Fluorescence WT (Normalized to CHX) ([8]; 5μM compound with CHX): 1.011 and 0.958 and 1.026 and 0.960 and 0.926 and 0.822 and 0.883 and 0.671 | Integrated Fluorescence WT (Normalized to CHX) ([8]; 20μM compound with CHX): 0.950 and 0.938 and 0.974 and 0.870 and 0.844 and 0.840 and 0.850 and 0.749 | clearance of GFP-TDP-4FL aggregates (integrated fluorescence) ([8]; MG132, then CHX with 5 or 20 μM activator): enhances clearance of TDP-4FL inclusions
